Data on 1 compound can be found in ChEMBL document CHEMBL5729761, “Polycyclic compounds as allosteric SHP2 inhibitors” (2023).

Some results are limits rather than exact numbers.

What is called IC50 is the point on the concentration scale where inhibition reaches its midpoint. Read a high IC50 as a need for much substance.

The test concerns the target T1, Tyrosine-protein phosphatase non-receptor type 11 (Homo sapiens, UniProt Q06124).
T1 sequence (Q06124 whole entry): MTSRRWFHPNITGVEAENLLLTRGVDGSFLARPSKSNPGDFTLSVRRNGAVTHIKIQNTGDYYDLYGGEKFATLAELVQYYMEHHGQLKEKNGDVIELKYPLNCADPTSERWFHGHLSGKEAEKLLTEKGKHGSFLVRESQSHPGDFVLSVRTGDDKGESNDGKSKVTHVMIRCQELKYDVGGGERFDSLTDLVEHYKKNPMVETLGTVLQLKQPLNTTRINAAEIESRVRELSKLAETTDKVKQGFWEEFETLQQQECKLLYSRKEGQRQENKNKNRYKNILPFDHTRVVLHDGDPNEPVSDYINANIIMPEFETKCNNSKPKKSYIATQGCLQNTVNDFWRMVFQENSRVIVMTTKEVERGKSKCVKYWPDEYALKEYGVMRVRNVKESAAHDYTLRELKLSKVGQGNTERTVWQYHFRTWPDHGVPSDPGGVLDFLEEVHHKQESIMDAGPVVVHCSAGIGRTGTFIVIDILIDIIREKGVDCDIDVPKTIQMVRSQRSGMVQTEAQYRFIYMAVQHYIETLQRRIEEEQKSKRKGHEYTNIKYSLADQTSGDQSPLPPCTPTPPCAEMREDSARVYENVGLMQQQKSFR
Kind of test: SHP2 Allosteric Inhibition Assay: The inhibition of SHP2 by compounds of the invention (concentrations varying from 0.00005-10 μM) was monitored using an assay in which 0.2 nM of SHP2 was incubated with 0.5 μM of Activating Peptide 1 (sequence: H2N LN(pY)IDLDLV(dPEG8)LST(pY)ASINFQK-amide) or Activating Peptide 2 (sequence: H2N-LN(pY)AQLWHA(dPEG8)LTI(pY)ATIRRF-amide). After 30-60-minutes incubation at 25° C., the surrogate substrate DiFMUP (Invitrogen, Cat #D6567) was added to the reaction and activity was determined by a kinetic read using a microplate reader (Envision, Perkin-Elmer or Spectramax M5, Molecular Devices). The excitation and emission wavelengths were 340 nm and 450 nm, respectively. Initial rates were determined from a linear fit of the data, and the inhibitor dose response curves were analyzed using normalized IC50 regression curve fitting with control based normalization.

With `Cc1nc(N2CCC3(CC2)CO[C@@H](C)[C@H]3N)n2ccnc2c1-c1ccc2nccnc2c1`, the IC50 is < 0.05 µM.
